Earlier results on two molecules are cited in patent EP4635967A1, “OLIGONUCLEOTIDE COMPRISING LIPOPHILIC MONOMER AND USE THEREOF IN NON-LIVER DELIVERY” (Tuojie Biotech (Shanghai) Co., Ltd., priority 2022, dated 2024).

The conditions of the series: octanol-water partition coefficient, example values in the definition of lipophilic moiety.

On to `CC(C)CCC[C@@H](C)[C@H]1CC[C@H]2[C@@H]3CC=C4C[C@@H](OC(=O)NCCCCCCO)CC[C@]4(C)[C@H]3CC[C@]12C` [cholesteryl N-(hexan-6-ol)carbamate], for which the logKow is reported as 10.7.

Regarding `NCCCCCCO` [6-aminohexanol], the logKow entry is given as “about 0.7”.
